Among the data in PubChem BioAssay (NCI) are GI50 and TGI values, retold here.

The structures appear in SMILES notation. Several values for one entry are separate records, joined by “and”; a condition that tells them apart may be missing. Equal entries are not always repeated.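 Method: 48-hour compound exposure of cells in 96-well plates, five concentrations, linear interpolation of endpoints. GI50: concentration for 50% inhibition of growth. TGI marks complete inhibition of growth.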

Test systems include OVCAR-3 ovarian; HCC-2998 colon; KM12 colon; RXF 393 renal; K-562 leukemia; TK-10 renal; SR leukemia; HL-60(TB) leukemia; SF-539 CNS; SK-MEL-28 melanoma.
Common to all, as to assay: growth of human tumour cells (NCI), 48 h

On to `CC[C@@]1(O)C(=O)OCc2c1cc1n(c2=O)Cc2cc3cc(N)ccc3nc2-1`, for which the GI50 was 84.7 nM and 65.3 nM in the test on OVCAR-3 ovarian; 70.7 nM with HCC-2998 colon; 232 nM in the test on KM12 colon; 48.9 nM in the test with RXF 393 renal; 51.2 nM and 43 nM in the test with K-562 leukemia; 385 nM and 169 nM in the test with TK-10 renal. In addition, the GI50 is 13.4 nM with SR leukemia; 71.8 nM in the test with HL-60(TB) leukemia; 183 nM and 56.3 nM with SK-MEL-28 melanoma. In addition, the TGI with OVCAR-3 ovarian was 608 nM and 346 nM; in the test on HCC-2998 colon it was 495 nM and 1360 nM; in the test with KM12 colon, 2900 nM; with SR leukemia it was 23.6 nM; in the test on HL-60(TB) leukemia, 1030 nM; in the test on SF-539 CNS it was 39.8 nM. For the same molecule, the TGI in the test on SK-MEL-28 melanoma was 4580 nM and 2200 nM.

On to `FCc1ncc(-c2ccc(C(F)(F)F)cc2)c(NC2CCCCCC2)n1`, for which the GI50 in the test on OVCAR-3 ovarian, in the test with HCC-2998 colon, in the test with KM12 colon, with RXF 393 renal, in the test with K-562 leukemia and with TK-10 renal was > 10000 nM each time. For the same molecule, the GI50 in the test with SR leukemia, with HL-60(TB) leukemia, with SF-539 CNS and in the test on SK-MEL-28 melanoma was > 10000 nM each time. In addition, the TGI in the test with OVCAR-3 ovarian, with HCC-2998 colon, in the test on KM12 colon, in the test on RXF 393 renal, in the test with K-562 leukemia and in the test on TK-10 renal was > 10000 nM throughout. Moreover, the TGI in the test on SR leukemia, with HL-60(TB) leukemia, with SF-539 CNS and in the test on SK-MEL-28 melanoma was > 10000 nM in each case.

Take `O=C1NC2(CN3CCC2CC3)C(=O)N1CN(Cc1ccccc1)c1ccccc1` (centres undefined): the TGI is > 100000 nM in the test on OVCAR-3 ovarian; > 100000 nM in the test on HCC-2998 colon; > 100000 nM in the test on KM12 colon; > 100000 nM in the test with RXF 393 renal; > 100000 nM in the test on TK-10 renal; 63200 nM with SR leukemia. For the same molecule, the TGI with HL-60(TB) leukemia was 44700 nM; in the test on SF-539 CNS, > 100000 nM; with SK-MEL-28 melanoma it was > 100000 nM.

As for `CCN(CC)CCNc1n[n+]([O-])c2ccccc2[n+]1[O-]`, the TGI in the test on OVCAR-3 ovarian was 26200 nM; in the test with HCC-2998 colon, 6120 nM and 14500 nM; with KM12 colon, 25200 nM and 29000 nM; with RXF 393 renal it was 25400 nM and 42700 nM; with K-562 leukemia it was 6450 nM and 18500 nM; in the test with TK-10 renal it was > 68500 nM and 41800 nM. Moreover, the TGI in the test on SR leukemia is 6870 nM and 28700 nM; with HL-60(TB) leukemia it was 7610 nM and 8950 nM; in the test on SF-539 CNS, 25700 nM and 42900 nM; in the test with SK-MEL-28 melanoma, > 100000 nM. Moreover, in the test with SR leukemia, the GI50 is 2920 nM and 6700 nM.

Consider `COC(=O)CCC1=C(C)/C(=C/c2[nH]c(-c3ccc[nH]3)cc2OC)N=C1C`, for which the GI50 is 397 nM in the test with OVCAR-3 ovarian; 1370 nM in the test with HCC-2998 colon; 389 nM with KM12 colon; 352 nM in the test with RXF 393 renal; 374 nM in the test with K-562 leukemia; 2340 nM in the test with TK-10 renal. Moreover, the GI50 in the test with SR leukemia is 317 nM; with HL-60(TB) leukemia, 414 nM; in the test with SF-539 CNS, 1210 nM; in the test on SK-MEL-28 melanoma it was 869 nM. Besides, the TGI in the test on OVCAR-3 ovarian worked out at 1700 nM; in the test on HCC-2998 colon, 6730 nM; in the test with KM12 colon it was 2390 nM; in the test on RXF 393 renal it was 2070 nM; in the test on K-562 leukemia it was 4900 nM; in the test on TK-10 renal, 9220 nM. For the same molecule, the TGI in the test on SR leukemia is 88700 nM; in the test with HL-60(TB) leukemia it was 2380 nM; with SF-539 CNS it was 5320 nM; in the test on SK-MEL-28 melanoma, 3550 nM.

Take `CN[C@@H]1C[C@H]2O[C@@](C)([C@@H]1OC)n1c3ccccc3c3c4c(c5c6ccccc6n2c5c31)C(=O)N[C@@H]4O`: the TGI in the test with OVCAR-3 ovarian is 300 nM and 722 nM; with HCC-2998 colon it was 300 nM and 2690 nM; in the test with RXF 393 renal it was 34.5 nM and < 21.9 nM; with TK-10 renal, 300 nM and 91.4 nM; in the test with SR leukemia, 833 nM; with SF-539 CNS it was 31.4 nM and 57.7 nM. The molecule further yielded a TGI in the test with SK-MEL-28 melanoma of 2310 nM. Moreover, the GI50 in the test with HCC-2998 colon is 53.4 nM; in the test with KM12 colon, 18.5 nM; with RXF 393 renal, 9.55 nM; in the test with K-562 leukemia, 162 nM; in the test with TK-10 renal, 19.5 nM and 21.1 nM; in the test with SF-539 CNS, 19.6 nM.

Take `CSc1ccc(/C=C2\C=C(CC(=O)NCc3ccc(C(=O)c4ccccc4)cc3)c3cc(F)ccc32)cc1`: the GI50 was 24.5 nM in the test with OVCAR-3 ovarian; 54.4 nM in the test with HCC-2998 colon; 33.5 nM with KM12 colon; 30.7 nM in the test with RXF 393 renal; 39.3 nM in the test on K-562 leukemia; 329 nM in the test on TK-10 renal. In addition, the GI50 in the test on SR leukemia is 30.6 nM; in the test with HL-60(TB) leukemia, 40.9 nM; with SF-539 CNS it was 38.1 nM; in the test with SK-MEL-28 melanoma, 68.8 nM. Further, the TGI with OVCAR-3 ovarian was 64.3 nM; with HCC-2998 colon, 756 nM; with KM12 colon, 1480 nM; with RXF 393 renal, 292 nM; with K-562 leukemia it was > 100000 nM; in the test with TK-10 renal it was 6930 nM. For the same molecule, the TGI in the test on SR leukemia is 26200 nM; in the test on HL-60(TB) leukemia, 208 nM; with SF-539 CNS, 1170 nM; with SK-MEL-28 melanoma, 19800 nM.

With `Cc1nc(C(N)=S)sc1C(=O)C/C(=N/N)C(=O)Nc1cccc(Cl)c1C`, the TGI in the test on OVCAR-3 ovarian, in the test with HCC-2998 colon, in the test on KM12 colon, in the test on RXF 393 renal, in the test on K-562 leukemia and in the test with TK-10 renal was > 100000 nM in each case. Moreover, the TGI in the test on SR leukemia, in the test with HL-60(TB) leukemia, in the test with SF-539 CNS and with SK-MEL-28 melanoma was > 100000 nM in each case.

Turning to `O=Cc1ccc(-c2cccs2)s1`, the TGI with OVCAR-3 ovarian was 58100 nM; with HCC-2998 colon, > 100000 nM; in the test with KM12 colon, > 100000 nM; in the test with RXF 393 renal it was 65300 nM; in the test with K-562 leukemia, 46400 nM; with TK-10 renal, 11700 nM. The TGI with SR leukemia is > 100000 nM; in the test on HL-60(TB) leukemia, > 68100 nM; with SF-539 CNS, > 100000 nM; in the test with SK-MEL-28 melanoma, > 100000 nM.
